The structures appear in SMILES notation. Values joined by “and” are separate entries in the source; they are usually repeats but may differ in a detail not shown here. Equal entries are not always repeated.

Results on one compound are retold here after patent publication EP4775586A1, “DEUTERATED TETRACYCLIC DERIVATIVE AND USE THEREOF” (priority 2023, dated 2025).

In one data set the test system is CYP2D6. Format: in vitro ADME, mouse. Here is the method:
(§1) This example was to detect the CYP450 metabolic enzyme phenotype of the deuterated compound YF027 and its non-deuterated control compound A (using a CYP450 enzyme metabolic phenotype research kit (recombinant enzymatic method/7 enzymes)-mouse liver microsome test).
(§2) • a. The test compound was prepared into a 40 mM stock solution for later use. 2.5 µL of the stock solution was taken and diluted with DMSO to a test compound concentration of 200 µM, and the compound at this concentration was used in subsequent tests. • b. The working solution concentration of the mixed positive substrates, phenacetin and testosterone, was 200 µM.
(§3) 1) The components of the kit were thawed in an ice bath. The mixture was well mixed by vortexing and then placed on ice for later use. 2) In addition to the microsomes, the other components of the incubation systems were mixed according to the ratios and well mixed by pipetting, and the ratios of the incubation systems are shown below; Table 6. Incubation system of positive control group
(§4) The inhibitors were quinidine, naphthoflavone, pilocarpine, sodium diethyldithiocarbamate, ticlopidine, ketoconazole, and sulfaphenazole, which corresponded to the inhibition of CYP450 enzymes CYP2D6, CYP1A2, CYP2A6, CYP2E1, CYP2C19, CYP3A4, and CYP2C9, respectively. Table 9. Incubation system of negative control group
(§5) 3) Except for the negative control group (Table 9), 3.125 µL of liver microsomes was added to each of the above incubation systems to prepare 125 µL of reaction solution. The reaction solutions were well mixed by vortexing, and then placed in a water bath at 37 °C to initiate the reaction. A timer was set. 4) At time points of 0 min and 90 min, 50 µL of reaction solution was taken, and a pre-cooled acetonitrile solution was added to the reaction solution. The mixture was quickly well mixed by vortexing to stop the reaction. 5) Mass spectrometry detection pretreatment of reaction solution
(§6) The reaction solution was cryopreserved in a refrigerator at -80 °C overnight and then centrifuged for mass spectrometry detection.
(§7) The detection values after 90 min of incubation were processed as ratios relative to the 0-min detection values to determine the metabolic rate of the compounds in different experimental groups after 90 min. The metabolic inhibition rate was then calculated using the formula: Inhibition rate (%) = (1 - metabolic rate of sample with inhibitor/metabolic rate of sample without inhibitor) × 100%, as shown in Table 10 below. […] The metabolic inhibition rate reflects the effect on the metabolic elimination of the drug after adding different selective inhibitors. Therefore, when the metabolic inhibition rate of a specific enzyme is ≥ 25%, the contribution of the specific enzyme to the clearance of the drug under study can be inferred to be ≥ 25% based on the results of the in vitro metabolism study.

The next data set deals with CYP3A4. It counts as in vitro ADME, mouse. Here is the method:
as §1, §2, §3, §4, §5, §6, §7

The test system of another data set is CYP2C9. Format: in vitro ADME, mouse. Here is the method:
as §1, §2, §3, §4, §5, §6, §7

For the next data set, the system named is CYP2C19. Format: in vitro ADME, mouse. How it is done:
as §1, §2, §3, §4, §5, §6, §7

Another data set deals with CYP2A6. Format: in vitro ADME, mouse. Here is the method:
as §1, §2, §3, §4, §5, §6, §7

In the next data set the target is T1, CYP2E1 (Mus musculus, UniProt Q05421).
T1 construct: from tissue; host or cells: mouse liver microsomes (component of a kit)
T1 sequence (Q05421 whole entry): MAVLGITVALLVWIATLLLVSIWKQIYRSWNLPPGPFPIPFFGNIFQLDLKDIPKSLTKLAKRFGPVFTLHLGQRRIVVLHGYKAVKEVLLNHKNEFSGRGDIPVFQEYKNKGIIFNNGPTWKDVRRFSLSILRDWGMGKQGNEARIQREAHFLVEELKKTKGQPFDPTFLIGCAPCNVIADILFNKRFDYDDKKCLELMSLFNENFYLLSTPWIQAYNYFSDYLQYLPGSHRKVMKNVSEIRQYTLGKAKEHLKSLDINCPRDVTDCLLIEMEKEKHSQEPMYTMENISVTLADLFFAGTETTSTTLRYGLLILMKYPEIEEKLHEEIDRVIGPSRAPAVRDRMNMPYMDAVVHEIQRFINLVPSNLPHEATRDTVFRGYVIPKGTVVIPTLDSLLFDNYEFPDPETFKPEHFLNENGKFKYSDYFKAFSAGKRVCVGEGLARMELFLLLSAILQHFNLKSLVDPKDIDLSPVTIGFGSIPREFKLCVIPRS
It counts as in vitro ADME. Here is the method:
as §1, §2, §3, §4, §5, §6
(§8) The detection values after 90 min of incubation were processed as ratios relative to the 0-min detection values to determine the metabolic rate of the compounds in different experimental groups after 90 min. The metabolic inhibition rate was then calculated using the formula: Inhibition rate (%) = (1 - metabolic rate of sample with inhibitor/metabolic rate of sample without inhibitor) × 100%, as shown in Table 10 below. […] The metabolic inhibition rate reflects the effect on the metabolic elimination of the drug after adding different selective inhibitors. […]

In another data set the target is T2, CYP1A2 (Mus musculus, UniProt P00186).
T2 construct: from tissue; host or cells: mouse liver microsomes (component of a kit)
T2 sequence (P00186 1-513): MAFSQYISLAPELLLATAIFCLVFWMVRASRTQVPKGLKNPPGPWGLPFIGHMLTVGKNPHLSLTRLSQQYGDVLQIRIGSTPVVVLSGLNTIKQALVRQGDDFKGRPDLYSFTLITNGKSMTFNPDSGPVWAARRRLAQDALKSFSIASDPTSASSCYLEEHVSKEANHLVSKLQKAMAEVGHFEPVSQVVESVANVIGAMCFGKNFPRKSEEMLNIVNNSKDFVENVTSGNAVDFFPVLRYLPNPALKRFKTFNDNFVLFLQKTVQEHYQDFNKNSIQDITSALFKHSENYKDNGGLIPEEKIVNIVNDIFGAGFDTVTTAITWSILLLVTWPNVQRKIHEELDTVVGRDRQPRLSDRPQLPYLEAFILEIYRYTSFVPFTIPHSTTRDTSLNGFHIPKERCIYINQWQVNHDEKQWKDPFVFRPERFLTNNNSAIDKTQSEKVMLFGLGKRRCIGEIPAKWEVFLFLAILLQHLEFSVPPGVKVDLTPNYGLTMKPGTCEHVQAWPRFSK
It counts as in vitro ADME. Here is the method:
as §1, §2, §3, §4, §5, §6, §8

The subject of data set [1] is Mycobacterium tuberculosis H37Rv. It counts as in vivo, BALB/c mice.
A short description of data set [2]: 28-day repeat-dose toxicity study in mice. It counts as in vivo, Balb/c mice. The conditions noted are these: 100 mg/kg intragastric, once daily, 6 days a week, 4 weeks, Balb/c mice. How it is done: Administration groups of the compound YF027 of the present disclosure and its non-deuterated control compound A were set for a 28-day repeat-dose toxicity study in mice. Each compound was administered to 10 Balb/c mice (5 females and 5 males, purchased from Beijing Vital River Laboratory Animal Technology Co., Ltd.) by intragastric administration. The administration was performed once daily for 6 consecutive days a week for 4 consecutive weeks, and an 8% Tween 80 vehicle control group (10 Balb/c mice, 5 females and 5 males) was set for administration at the same volume using the same method. Table 12. Administration information of repeat-dose toxicity assay
During the administration period, the mice were observed every day. The body weight, appearance signs, behavior and activity, fecal traits, and local reactions at the site of administration were recorded. After the end of the administration, the gross anatomy was performed on the mice in the administration group and the control group. The serum of the mice was collected, and the heart, liver, spleen, kidney, lung, and brain tissues and organs were weighed to calculate organ coefficients. The tissue samples of all groups were subjected to histopathological detection, and the serum samples were analyzed for biochemical parameters of liver and kidney functions. The serum biochemical parameters included: alanine aminotransferase (ALT), aspartate aminotransferase (AST), alkaline phosphatase (ALP), urea (UREA), creatinine (CREA), total protein (TP), and albumin (ALB). Statistical analysis was performed to evaluate potential toxic effects of the compounds.

Data set [3] is described as follows: Pharmacokinetics and lung tissue distribution in mice, LC-MS/MS. It counts as in vivo, Balb/C mice. As to conditions: mouse, in vivo, po, 100 mg/kg. How it is done: In this example, the pharmacokinetic parameters and lung tissue distribution of the deuterated compounds YF027, YF032, YF036, and YF044 and their respective non-deuterated control compounds (A, B, C, and D) were determined.
Balb/C mice, male (1 group at each time point, 5 mice per group, 55 mice per compound in total), 7-8 weeks old, weighing about 20 g, animal source: Beijing Vital River Laboratory Animal Technology Co., Ltd.
The test compound was completely dissolved in an 8% Tween-80 aqueous solution. A 10 mg/mL drug liquid was prepared for intraperitoneal injection and intragastric administration.
Single intragastric administration was performed at a dose of 100 mg/kg. The pharmacokinetic differences between the deuterated compounds YF027, YF032, YF036, and YF044 and their respective non-deuterated controls A, B, C, and D were compared.
The mice were fasted overnight before administration. In the experiment, orbital venous blood and lung tissue were collected from the mice at time points of no administration group (0 min) and 10 min, 20 min, 30 min, 1 h, 2 h, 3 h, 4 h, 6 h, 8 h, and 24 h after intragastric administration, and about 300 µL of blood was collected from the eyeballs each time.
The collected blood sample was placed in an anticoagulation tube, and quickly inverted and mixed well. The tube was temporarily placed on ice after being labeled. The blood samples temporarily stored on ice were subjected to low-temperature centrifugation within 1 h at 4 °C at 3000 rpm for 10 min. The supernatant obtained after centrifugation was plasma. The plasma was transferred to a new centrifuge tube and stored in a refrigerator at -80 °C for subsequent detection.
The lung tissues of the mice were collected, washed with pre-cooled normal saline to remove the residual blood and tissue fluid, dried with absorbent paper, weighed with a balance, and placed into a centrifuge tube. The tubes were marked and stored in a refrigerator at -80 °C.
The concentrations of the compounds of the present disclosure and control compounds in plasma and lung tissue were determined using LC-MS/MS. Table 2. Pharmacokinetic parameters of compound YF027 of the present disclosure and control compound A

Data set [4] deals with Mycobacterium tuberculosis H37Rv. Nature of the data set: Minimum inhibitory concentration (MIC90) against Mycobacterium tuberculosis H37Rv, Middlebrook 7H9, 96-well plate, 15 days. It counts as cell-based. The conditions noted are these: Mycobacterium tuberculosis, H37RV, 360 h.

For `CC(C)(C)c1cc(O)c(CN2CCCCC2)c2c1oc1c3ccc(O)cc3oc(=O)c12` [Compound A, reference compound], the Inhibition rate with CYP2D6 is given as -8.7%; with CYP3A4, 76.9%; in the data set with CYP2C9, -2.8%; with CYP2C19, -19.3%; with CYP2A6, 4.2%; at CYP2E1 it was -26.5%. The Inhibition rate at CYP1A2 is -11.7%. Further, in data set [1] (100 mg/kg intragastrically, 4 weeks, mice), the “pulmonary Mycobacterium tuberculosis clearance rate” value is on record as 87.7%. In addition, the “reduction of pulmonary bacterial load” value in [1] (mouse, in vivo) is on record as 0.91 log. Besides, the “mortality during the administration period” value in [2] was “no mice died”. Also, the AUC(0-inf) (commonly the area under the concentration-time curve extrapolated to infinity) in [3] was 121 ng·h/mL. Further, the AUC(0-t) (in general, exposure summed from dosing to a finite time, without extrapolation to infinity) at 24 h in data set [3] stood at 117 ng·h/mL. For the same compound, the Cmax (commonly the peak of the concentration-time curve) in data set [3] was 120 ng/mL and 948 ng/g. In addition, the Tmax (usually the time at which the peak concentration occurs) in data set [3] amounted to 0.167 h. In data set [3], the half-life – broadly, the time needed for the level to fall by half in the phase considered – is 4.35 h. Besides, in data set [4], the MIC90 (as a rule, an inhibitory concentration at the 90% level, which refers to growth in some studies and to a panel of isolates in others) is at most 3.9 ng/mL.
